Measurements from PubChem BioAssay (NCI).
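Five concentrations, 48 hours, 96-well plates. Here, GI50 denotes the concentration required for 50% inhibition of growth. TGI marks complete inhibition of growth.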

Legend:
Assay in all cases: NCI tumour cell line growth inhibition, 48 h
UACC-257 melanoma = system: UACC-257 melanoma
A549 NSCLC = system: A549 NSCLC
NCI-H226 lung = system: NCI-H226 lung
HCT-15 colon = system: HCT-15 colon
NCI-H23 lung = system: NCI-H23 lung
OVCAR-5 ovarian = system: OVCAR-5 ovarian
SNB-19 CNS = system: SNB-19 CNS
SR leukemia = system: SR leukemia
HOP-62 NSCLC = system: HOP-62 NSCLC
MDA-MB-231 breast = system: MDA-MB-231 breast
LOX IMVI melanoma = system: LOX IMVI melanoma
DU-145 prostate = system: DU-145 prostate
MALME-3M melanoma = system: MALME-3M melanoma
SK-MEL-5 melanoma = system: SK-MEL-5 melanoma
NCI-H522 lung = system: NCI-H522 lung
RXF 393 renal = system: RXF 393 renal
PC-3 prostate = system: PC-3 prostate
SF-295 CNS = system: SF-295 CNS
HCT-116 colon = system: HCT-116 colon
A498 renal = system: A498 renal
OVCAR-3 ovarian = system: OVCAR-3 ovarian
T-47D breast = system: T-47D breast
SF-539 CNS = system: SF-539 CNS
COLO 205 colon = system: COLO 205 colon
SW-620 colon = system: SW-620 colon
HCC-2998 colon = system: HCC-2998 colon
OVCAR-8 ovarian = system: OVCAR-8 ovarian
SK-MEL-28 melanoma = system: SK-MEL-28 melanoma
OVCAR-4 ovarian = system: OVCAR-4 ovarian
ACHN renal = system: ACHN renal
HS 578T breast = system: HS 578T breast
SNB-75 CNS = system: SNB-75 CNS
MOLT-4 leukemia = system: MOLT-4 leukemia
IGROV1 ovarian = system: IGROV1 ovarian
HT29 colon = system: HT29 colon
EKVX NSCLC = system: EKVX NSCLC
BT-549 breast = system: BT-549 breast
RPMI-8226 leukemia = system: RPMI-8226 leukemia
CCRF-CEM leukemia = system: CCRF-CEM leukemia
MCF7 breast = system: MCF7 breast
SK-OV-3 ovarian = system: SK-OV-3 ovarian
786-0 renal = system: 786-0 renal
CAKI-1 renal = system: CAKI-1 renal
NCI-H460 lung = system: NCI-H460 lung
MDA-MB-435 = system: MDA-MB-435
K-562 leukemia = system: K-562 leukemia
SF-268 CNS = system: SF-268 CNS
UO-31 renal = system: UO-31 renal
NCI/ADR-RES ovarian = system: NCI/ADR-RES ovarian
TK-10 renal = system: TK-10 renal
M14 melanoma = system: M14 melanoma
HOP-92 NSCLC = system: HOP-92 NSCLC
U251 CNS = system: U251 CNS
KM12 colon = system: KM12 colon
SK-MEL-2 melanoma = system: SK-MEL-2 melanoma
HL-60(TB) leukemia = system: HL-60(TB) leukemia

With `COC(=O)[C@]12CC[C@@H](C)[C@H](C)[C@@H]1C1=CC[C@@H]3[C@@]4(C)C[C@@H](OC(C)=O)[C@H](O)[C@@](C)(CO)[C@@H]4[C@H](O)C[C@@]3(C)[C@]1(C)CC2` as the compound, how does the GI50 (UACC-257 melanoma) read?
The GI50 was 13.4 µM.

What about the TGI (UACC-257 melanoma) of the same compound?
The TGI was 28.1 µM.

And the GI50 (A549 NSCLC)?
Its GI50 is 6.39 µM.

And the TGI (A549 NSCLC)?
Its TGI is 20.8 µM.

What about the GI50 (NCI-H226 lung) of the same compound?
The GI50 was 16.3 µM.

What about the TGI (NCI-H226 lung) of the same compound?
The TGI was 38.2 µM.

And the GI50 (HCT-15 colon)?
The GI50 was 7.74 µM.

And the TGI (HCT-15 colon)?
The TGI was 22.9 µM.

What about the GI50 (NCI-H23 lung) of the same compound?
Its GI50 is 13.6 µM.

And the TGI (NCI-H23 lung)?
The TGI was 30 µM.

What about the GI50 (OVCAR-5 ovarian) of the same compound?
The GI50 was 13.2 µM.

What about the TGI (OVCAR-5 ovarian) of the same compound?
Its TGI is 27.7 µM.

And the GI50 (SNB-19 CNS)?
The GI50 was 14.3 µM.

And the TGI (SNB-19 CNS)?
Its TGI is 31.3 µM.

And the GI50 (SR leukemia)?
The GI50 was 7.62 µM.

And the TGI (SR leukemia)?
The TGI was 25.5 µM.

And the GI50 (HOP-62 NSCLC)?
The GI50 was 14.7 µM.

What about the TGI (HOP-62 NSCLC) of the same compound?
The TGI was 29.5 µM.

What about the GI50 (MDA-MB-231 breast) of the same compound?
The GI50 was 8.95 µM.

What about the TGI (MDA-MB-231 breast) of the same compound?
The TGI was 23.4 µM.

And the GI50 (LOX IMVI melanoma)?
Its GI50 is 10.4 µM.

And the TGI (LOX IMVI melanoma)?
Its TGI is 23.6 µM.

And the GI50 (DU-145 prostate)?
Its GI50 is 13 µM.

And the TGI (DU-145 prostate)?
Its TGI is 26.4 µM.

What about the GI50 (MALME-3M melanoma) of the same compound?
The GI50 was 17.2 µM.

What about the TGI (MALME-3M melanoma) of the same compound?
The TGI was 33 µM.

And the GI50 (SK-MEL-5 melanoma)?
Its GI50 is 12.9 µM.

And the TGI (SK-MEL-5 melanoma)?
Its TGI is 26 µM.

What about the GI50 (NCI-H522 lung) of the same compound?
Its GI50 is 11.2 µM.

What about the TGI (NCI-H522 lung) of the same compound?
Its TGI is 26.2 µM.

What about the GI50 (RXF 393 renal) of the same compound?
The GI50 was 11 µM.

And the TGI (RXF 393 renal)?
The TGI was 26.4 µM.

And the GI50 (PC-3 prostate)?
The GI50 was 7.53 µM.

What about the TGI (PC-3 prostate) of the same compound?
The TGI was 20.5 µM.

And the GI50 (SF-295 CNS)?
The GI50 was 11.6 µM.

What about the TGI (SF-295 CNS) of the same compound?
Its TGI is 25.1 µM.

What about the GI50 (HCT-116 colon) of the same compound?
The GI50 was 11.8 µM.

And the TGI (HCT-116 colon)?
Its TGI is 25.4 µM.

And the GI50 (A498 renal)?
The GI50 was 11.9 µM.

And the TGI (A498 renal)?
The TGI was 24.7 µM.

What about the GI50 (OVCAR-3 ovarian) of the same compound?
The GI50 was 13.4 µM.

And the TGI (OVCAR-3 ovarian)?
Its TGI is 29.9 µM.

And the GI50 (T-47D breast)?
The GI50 was 12.4 µM.

What about the TGI (T-47D breast) of the same compound?
Its TGI is 28.7 µM.

And the GI50 (SF-539 CNS)?
The GI50 was 14.8 µM.

And the TGI (SF-539 CNS)?
The TGI was 29.4 µM.

What about the GI50 (COLO 205 colon) of the same compound?
The GI50 was 11.6 µM.

And the TGI (COLO 205 colon)?
The TGI was 25.9 µM.

And the GI50 (SW-620 colon)?
The GI50 was 16 µM.

What about the TGI (SW-620 colon) of the same compound?
The TGI was 35.6 µM.

What about the GI50 (HCC-2998 colon) of the same compound?
Its GI50 is 12 µM.

And the TGI (HCC-2998 colon)?
The TGI was 26.7 µM.

And the GI50 (OVCAR-8 ovarian)?
Its GI50 is 12.2 µM.

And the TGI (OVCAR-8 ovarian)?
The TGI was 30.4 µM.

What about the GI50 (SK-MEL-28 melanoma) of the same compound?
The GI50 was 13 µM.

What about the TGI (SK-MEL-28 melanoma) of the same compound?
The TGI was 28.6 µM.

What about the GI50 (OVCAR-4 ovarian) of the same compound?
Its GI50 is 12 µM.

What about the TGI (OVCAR-4 ovarian) of the same compound?
Its TGI is 27 µM.

What about the GI50 (ACHN renal) of the same compound?
Its GI50 is 10.4 µM.

And the TGI (ACHN renal)?
Its TGI is 24.5 µM.

And the GI50 (HS 578T breast)?
Its GI50 is 11.9 µM.

And the TGI (HS 578T breast)?
The TGI was 29.6 µM.

And the GI50 (SNB-75 CNS)?
The GI50 was 10.2 µM.

What about the TGI (SNB-75 CNS) of the same compound?
The TGI was 23.1 µM.

And the GI50 (MOLT-4 leukemia)?
The GI50 was 5.82 µM.

And the TGI (MOLT-4 leukemia)?
Its TGI is 22 µM.

What about the GI50 (IGROV1 ovarian) of the same compound?
The GI50 was 8.87 µM.

What about the TGI (IGROV1 ovarian) of the same compound?
Its TGI is 24.8 µM.

What about the GI50 (HT29 colon) of the same compound?
The GI50 was 5.79 µM.

What about the TGI (HT29 colon) of the same compound?
Its TGI is 20.4 µM.

What about the GI50 (EKVX NSCLC) of the same compound?
Its GI50 is 10.5 µM.

And the TGI (EKVX NSCLC)?
Its TGI is 24.6 µM.

And the GI50 (BT-549 breast)?
The GI50 was 15 µM.

And the TGI (BT-549 breast)?
Its TGI is 29.8 µM.

And the GI50 (RPMI-8226 leukemia)?
The GI50 was 7.86 µM.

What about the TGI (RPMI-8226 leukemia) of the same compound?
The TGI was 31.7 µM.

What about the GI50 (CCRF-CEM leukemia) of the same compound?
The GI50 was 12.8 µM.

What about the TGI (CCRF-CEM leukemia) of the same compound?
Its TGI is 36.5 µM.

What about the GI50 (MCF7 breast) of the same compound?
The GI50 was 4.95 µM.

What about the TGI (MCF7 breast) of the same compound?
The TGI was 20.9 µM.

And the GI50 (SK-OV-3 ovarian)?
Its GI50 is 16.6 µM.

What about the TGI (SK-OV-3 ovarian) of the same compound?
Its TGI is 30.7 µM.

And the GI50 (786-0 renal)?
Its GI50 is 14.5 µM.

What about the TGI (786-0 renal) of the same compound?
Its TGI is 29.8 µM.

What about the GI50 (CAKI-1 renal) of the same compound?
Its GI50 is 10.1 µM.

What about the TGI (CAKI-1 renal) of the same compound?
The TGI was 21.9 µM.

What about the GI50 (NCI-H460 lung) of the same compound?
The GI50 was 10.6 µM.

What about the TGI (NCI-H460 lung) of the same compound?
Its TGI is 26.3 µM.

What about the GI50 (MDA-MB-435) of the same compound?
Its GI50 is 12.6 µM.

And the TGI (MDA-MB-435)?
The TGI was 26 µM.

What about the GI50 (K-562 leukemia) of the same compound?
Its GI50 is 9.18 µM.

And the TGI (K-562 leukemia)?
Its TGI is 27.4 µM.

And the GI50 (SF-268 CNS)?
Its GI50 is 10.8 µM.

And the TGI (SF-268 CNS)?
Its TGI is 28.2 µM.

What about the GI50 (UO-31 renal) of the same compound?
The GI50 was 3.58 µM.

And the TGI (UO-31 renal)?
The TGI was 17.1 µM.

What about the GI50 (NCI/ADR-RES ovarian) of the same compound?
The GI50 was 13.2 µM.

And the TGI (NCI/ADR-RES ovarian)?
The TGI was 29.5 µM.

And the GI50 (TK-10 renal)?
Its GI50 is 15 µM.

And the TGI (TK-10 renal)?
Its TGI is 29 µM.

And the GI50 (M14 melanoma)?
Its GI50 is 8.14 µM.

What about the TGI (M14 melanoma) of the same compound?
Its TGI is 22.2 µM.

And the GI50 (HOP-92 NSCLC)?
Its GI50 is 11.3 µM.

What about the TGI (HOP-92 NSCLC) of the same compound?
The TGI was 24.3 µM.

What about the GI50 (U251 CNS) of the same compound?
Its GI50 is 10.7 µM.

What about the TGI (U251 CNS) of the same compound?
Its TGI is 23.9 µM.

What about the GI50 (KM12 colon) of the same compound?
The GI50 was 9.95 µM.

And the TGI (KM12 colon)?
Its TGI is 26.7 µM.

And the GI50 (SK-MEL-2 melanoma)?
Its GI50 is 17.7 µM.

And the TGI (SK-MEL-2 melanoma)?
The TGI was 34.1 µM.

And the GI50 (HL-60(TB) leukemia)?
Its GI50 is 13.9 µM.

What about the TGI (HL-60(TB) leukemia) of the same compound?
Its TGI is 31.6 µM.
